# “And” between values parts separate entries of the source, which are not always exact repeats. Identical values can stand only once.
# How the values were obtained:
# [1] = Threshold of electric fibrillation of auricles and ventricles in cats; assay type: in vivo
# Experimental: Furthermore, the preparation according to the present invention was tested for specific antiarrhythmic and antianginal effects. […] The effect of the novel pharmaceutical composition according to the present invention was studied on cats weighing 2.9-3.6 kg. The preparation was used as a 10% aqueous solution containing 3-(2,2,2-trimethylhydrazinium)propionate for the determination of the threshold value of electric fibrillation of auricles and ventricles. Under artificial respiration after opening of the thorax and pericardium, needle-like electrodes were applied to the right auricula and apex of the left ventricle. The irritation was effected by square pulses of 1 m.s., 15 st/s.
# (§1) For the comparison of preparations, as the criterion of the range of therapeutic effect, there was used the ratio of the half-lethal dose to the half-effective dose (LD50 /ED50) which was referred to as the antiarrhythmic index. […] The comparative study of the antiarrhythmic activity of pharmaceutical preparations using an acotine model of arrhythmia was effected in experiments on white rats weighing 190-240 g. The test preparations were administered intraperitoneally 10-40 minutes before administration of aconitine.
# [2] = Aconitine model of arrhythmia in white rats; assay type: in vivo
# Experimental: as §1
# [3] = Arterial pressure, respiration and responses to biogenic amines in narcotized cats; assay type: in vivo
# Experimental: The study of the preparation according to the present invention for arterial pressure, breathing and hemodynamic effects of norepinephrine, neoepinephrine, novoepinephrine, acetylcholine and histamine was carried out in experiments on cats with a mass of 2.8 to 4.0 kg narcotized by chlorase. There were then recorded the animals' arterial pressure, respiration and ECG on a physiograph produced by Narco Bio-Systems Co.
# [4] = Clinical study in patients with ischemic heart disease, peroral, 4 weeks; assay type: in vivo, men and women (patients with IHD); settings: for hemodynamic impact: before treatment 14.6 + 1.2; for pulse pressure: before treatment 47.6 + 0.6; for isometric contraction: before treatment 53 + 2; for asynchron. contraction: before treatment 56 + 2; for distolic pressure: before treatment 68.2 + 0.6; for heart rate: before treatment 72.3 + 1.5; for average dynamic pressure: before treatment 89.7 + 1.2; for tension period: before treatment 109 + 4; for lateral systolic pressure: before treatment 115.8 + 0.5; for final systolic pressure: before treatment 130.4 + 2.0; for expulsion phase: before treatment 222 + 4; for rate of heart relaxation: before treatment 250 + 9; for volume of heart ejection: before treatment 315 + 15; for diastol.: before treatment 499 + 14; for involution period: before treatment 830 + 26; for rate of pressure raise: before treatment 1,188 + 30
# Excerpt: The following hemodynamic parameters were studied: rate of the heart's beat (RHB), electrocardiogram (ECG), all types of arterial pressure with the curve recording on a Mechanocardiograph 063 (Savitsky's model), beat ejection according to the Wremser-Ranke method, speed of pulse wave propagation, phase analysis of the left ventricle systole on an instrument Mingograph M-34, as well as amplitude time parameters (volume rate of ejection VRE, speed of pressure growth (SPG), rate of heart relaxation (RHR)).
# For evaluation of contraction properties of myocardium separately during its systolic and diastolic periods of contraction there were used amplitude-time characteristics rate of heart ejection (RHE), rate of pressure rise (RPR) and rate of heart relaxation (RHR).
# The rate of heart ejection (RHE) is determined by the formula: (BV6/E), wherein BV--beat volume in ml, E--time of the expulsion phase in seconds.
# The rate of pressure rise is determined by the formula: [formula] wherein DP--diastolic pressure in mm, Hg, 5--conventional value of the final diastolic pressure in the aorta, IC--isometric contraction. RPR characterized contractive properties of the myocardium during the period of closed valves and its ability to rapidly surpass the value of pressure in the aorta for opening of the aortic valves.
# The rate of heart relaxation (RHR) characterizes activity of the myocardium at the moment of diastole and is determined by the formula [formula] wherein SP--systolic pressure in the brachial artery in mm Hg, 5--conventional value of the final diastolic pressure in the aorta, D--duration of the diastolic period in seconds.
# [5] = Clinical tests on patients with various kinds of pathology; settings: human, in vivo
# Excerpt: The pharmaceutical preparation according to the present invention can be useful in the treatment of such diseases as heart insufficiency, valvular defects, myocarditises, cardiosclerosis, ischemic heart disease, rhythm disturbances of different genesis. […] The preparation according to the present invention has been tested in experiments on animals and in clinics on patients with various kinds of pathology.
# The preparation has been studied on more than 65 patients suffering from various pathology of the cardio-vascular systems such as heart rhythm disturbances (arrhythmia) of different etiology, ischemic heart disease, stenocardia, and atherosclerosis.
compound,measurement,setting,value
"C[N+](C)(C)NCCC(=O)[O-] [3-(2,2,2-trimethylhydrazinium)propionate]",Increase of the threshold of electrical fibrillation of auricle and ventricles,[1]; 6 to 15 mg/kg intravenous,40-55%
same,ED50,"[1]; Felis catus, iv, read-out: ED50, electric irritation of cat's heart",10 ± 3.5 mg/kg
same,"Antiarrhythmic index LD50/ED50, electric irritation of cat's heart",[1]; intravenous,443 and 433
same,ED50,"[2]; Rattus norvegicus, ip, read-out: ED50, aconitine arrhythmia in rats",12.5 ± 2.5 mg/kg
same,"Antiarrhythmic index LD50/ED50, aconitine arrhythmia in rats","[2]; rat, in vivo",354
same,"Change in arterial pressure, pulse frequency and respiration",[3]; 0.5 to 2.0 mg/kg intravenous,"did not result in any essential change in arterial pressure, pulse frequency and respiration"
same,Level of responses to biogenic amines,[3]; 0.5 to 2.0 mg/kg intravenous,did not change changed the level of responses to biogenic amines
same,Change in response to acetyl choline,[3]; 15-25 mg/kg,10-15%
same,Change in response to neoepinephrine,[3]; 15-25 mg/kg,5-10%
same,Increase of the response to histamine,[3]; 15-25 mg/kg,5-10%
same,Short-time reduction of arterial pressure,[3]; 15-25 mg/kg,5-20 mm Hg
same,Duration of increase of arterial pressure,"[3]; 15-25 mg/kg, some cases",5 to 12 min
same,Increase of arterial pressure vs initial value,"[3]; 15-25 mg/kg, some cases",5-10 mm Hg
same,Blood pressure or response to biogenic amines,[3]; further increase of dose,did not cause changes in blood pressure or response to the administration of biogenic amines
same,hemodynamic impact,[4]; 1st week,18.2 + 1.0
same,pulse pressure,[4]; 1st week,46.5 + 1.1
same,isometric contraction,[4]; 1st week,49 + 3 millisec.
same,asynchron. contraction,[4]; 1st week,55 + 4
same,distolic pressure,[4]; 1st week,69.9 + 1.3
same,heart rate,[4]; 1st week,67.8 + 1.8 beat/min
same,average dynamic pressure,[4]; 1st week,90.6 + 0.7
same,tension period,[4]; 1st week,104 + 2 milliseconds
same,lateral systolic pressure,[4]; 1st week,116.4 + 2.1
same,final systolic pressure,[4]; 1st week,134.6 + 1.6 mm/Hg
same,expulsion phase,[4]; 1st week,225 + 2 milliseconds
same,rate of heart relaxation,[4]; 1st week,238 + 10 mm Hg/sec
same,volume of heart ejection,[4]; 1st week,320 + 23 ml/sec
same,diastol.,[4]; 1st week,543 + 21 milliseconds
same,involution period,[4]; 1st week,873 + 33
same,rate of pressure raise,[4]; 1st week,"1,326 + 45 mm Hg/sec"
same,hemodynamic impact,[4]; 2nd week,24.6 + 0.7
same,pulse pressure,[4]; 2nd week,48.6 + 1.6
same,isometric contraction,[4]; 2nd week,46 + 4 millisec.
same,asynchron. contraction,[4]; 2nd week,54 + 2
same,distolic pressure,[4]; 2nd week,70.3 + 0.9
same,heart rate,[4]; 2nd week,64.3 + 1.3 beat/min
same,average dynamic pressure,[4]; 2nd week,91.2 + 1.2
same,tension period,[4]; 2nd week,100 + 4 milliseconds
same,lateral systolic pressure,[4]; 2nd week,118.9 + 1.7
same,final systolic pressure,[4]; 2nd week,143.5 + 1.8 mm/Hg
same,expulsion phase,[4]; 2nd week,230 + 3 milliseconds
same,rate of heart relaxation,[4]; 2nd week,229 + 8 mm Hg/sec
same,volume of heart ejection,[4]; 2nd week,322 + 13 ml/sec
same,diastol.,[4]; 2nd week,603 + 21 milliseconds
same,involution period,[4]; 2nd week,933 + 42
same,rate of pressure raise,[4]; 2nd week,"1,473 + 130 mm Hg/sec"
same,hemodynamic impact,[4]; 3rd week,24.9 + 1.5
same,pulse pressure,[4]; 3rd week,47.8 + 1.4
same,isometric contraction,[4]; 3rd week,43 + 2 millisec.
same,asynchron. contraction,[4]; 3rd week,56 + 4
same,distolic pressure,[4]; 3rd week,72.3 + 1.4
same,heart rate,[4]; 3rd week,60.1 + 1.6 beat/min
same,average dynamic pressure,[4]; 3rd week,92.0 + 1.8
same,tension period,[4]; 3rd week,99 + 3 milliseconds
same,lateral systolic pressure,[4]; 3rd week,120.1 + 1.4
same,final systolic pressure,[4]; 3rd week,145.0 + 2.4 mm/Hg
same,expulsion phase,[4]; 3rd week,232 + 4 milliseconds
same,rate of heart relaxation,[4]; 3rd week,209 + 8 mm Hg/sec
same,volume of heart ejection,[4]; 3rd week,374 + 14 ml/sec
same,diastol.,[4]; 3rd week,669 + 14 milliseconds
same,involution period,[4]; 3rd week,1000 + 42
same,rate of pressure raise,[4]; 3rd week,"1,581 + 54 mm Hg/sec"
same,hemodynamic impact,[4]; 4th week,25.0 + 0.7
same,pulse pressure,[4]; 4th week,53.6 + 1.2
same,isometric contraction,[4]; 4th week,33 + 2 millisec.
same,asynchron. contraction,[4]; 4th week,55 + 3
same,distolic pressure,[4]; 4th week,72.0 + 1.8
same,heart rate,[4]; 4th week,62.2 + 1.4 beat/min
same,average dynamic pressure,[4]; 4th week,92.2 + 1.0
same,tension period,[4]; 4th week,88 + 2 milliseconds
same,lateral systolic pressure,[4]; 4th week,125.6 + 0.7
same,final systolic pressure,[4]; 4th week,150.6 + 2.7 mm/Hg
same,expulsion phase,[4]; 4th week,235 + 3 milliseconds
same,rate of heart relaxation,[4]; 4th week,226 + 12 mm Hg/sec
same,volume of heart ejection,[4]; 4th week,357 + 17 ml/sec
same,diastol.,[4]; 4th week,642 + 14 milliseconds
same,involution period,[4]; 4th week,965 + 21
same,rate of pressure raise,[4]; 4th week,"2,030 + 68 mm Hg/sec"
same,Arterial pressure,[4]; peroral,growth of all types of AP
same,Electrocardiographic findings,[4]; peroral,"slight decrease of the rate of the heart's beat, disappearance of auricular and ventricular extrasystoles, reinversion of the T ripple and increase of its positive amplitude"
same,Phase analysis of the left ventricle,"[4]; peroral, during the treatment","the involution period T was definitely increased, the phase of expulsion E was reduced, the period of tension PT shortened"
same,Improvement of patients' state,"[4]; peroral, first week",considerable improvement of the patients' state of health
same,"Therapeutic effects in paroxysmal tachycardia, fibrillation, A-V block and paroxysms",[5],"positive, though less pronounced, effects"
same,Therapeutic results in chronic decompensation (rheumatic valvular defects) and acute circulatory insufficiency (myocardial infarction),[5],Especially pronounced therapeutic results
